Test results as given in PubChem BioAssay AID1996.
Values after ≈ are worked out from the molar mass of the structure shown.

Conditions: buffer; pH 7.4; 200.0 µM

Point of comparison: Cc1ccc(C(=O)N2CCn3c(C)ccc3C2C)cc1 (stereo not drawn), solubility kinetic 23.1 µg/mL (≈ 86.1 µM). Against it:
- Fc1ccc(-c2csc(N3CCOCC3)n2)cc1 — 11-fold lower, 2.1 µg/mL (≈ 7.94 µM)
- CC1CN(C(=O)COC(=O)[C@@H](NC(=O)c2ccccc2Cl)C(C)C)CC(C)O1 (stereo partly drawn) — 2.5-fold higher, 58.5 µg/mL (≈ 142 µM)
- Br.CC(C)(C)c1cc(C2=CSC3=NCCN23)cc(C(C)(C)C)c1O — 2.2-fold lower, 10.7 µg/mL
- N#Cc1ccccc1OCC(=O)Nc1ccc(S(=O)(=O)N2CCOCC2)cc1 — 3.3-fold lower, 6.9 µg/mL (≈ 17.2 µM)
- COc1ccc(C(=O)C[n+]2ccc3ccccc3c2C)cc1.[Br-] — within 1.5-fold, 16.1 µg/mL
- C=CCn1c(O)c(CN2CCCCC2)c(C)c(C#N)c1=O — higher, > 43.1 µg/mL
- CCn1c(Oc2ccccc2)nc2c1c(=O)n(C)c(=O)n2C — 1.6-fold higher, 37.8 µg/mL (≈ 126 µM)
- Cc1ccc(C(=O)Cc2nc3ccccc3[nH]2)cc1 — within 1.5-fold, 30.5 µg/mL (≈ 122 µM)
- Cc1cc(C)cc(OCC(=O)Nc2ccc3c(c2)OCCO3)c1 — 12-fold lower, 2 µg/mL (≈ 6.38 µM)
- CC1CCc2cc(F)ccc2N1S(=O)(=O)c1ccc(F)cc1 (stereo not drawn) — 9.6-fold lower, 2.4 µg/mL (≈ 7.42 µM)
- NC(=O)C1(C(N)=O)OC1c1ccccc1 (stereo not drawn) — higher, > 30.9 µg/mL
- COc1ccc(OCC(=O)C2CC2)c(C#N)c1 — within 1.5-fold, 27.5 µg/mL (≈ 119 µM)
- COc1ccc(C(=O)NCCCNC(=O)c2ccccn2)cc1 — higher, > 47 µg/mL
- COc1ccc(OC)c(NC(=O)COC(=O)C2CCC2)c1 — higher, > 44 µg/mL
- CNC(=S)NCCCc1ccccc1 — higher, > 31.2 µg/mL
- Nc1ncnc2c1ncn2Cc1ccccc1 — higher, > 33.8 µg/mL
- Cc1cc2oc(=O)cc(CN3CCOCC3)c2c(C)c1Cl — 26-fold lower, 0.9 µg/mL (≈ 2.92 µM)
- O=C(Cc1ccccc1)Nc1ncccc1Cl — higher, > 37 µg/mL
- O=C(O)c1ncc(Cl)c(Cl)c1Cl — within 1.5-fold, 33.1 µg/mL (≈ 146 µM)
- CC1(C)CC(C(N)=S)CCO1 (stereo not drawn) — within 1.5-fold, 23.5 µg/mL (≈ 136 µM)
- Cc1ccc(S(=O)(=O)CCc2nc3ccccc3[nH]2)cc1 — higher, > 45.1 µg/mL
- CN(C)c1nc(Nc2ccc(F)cc2)nc(Oc2ccc(F)cc2)n1 — lower, < 0.1 µg/mL
- Cc1ccccc1NC(=O)c1ccc(OCc2c(C)noc2C)cc1 — 1.8-fold higher, 42.3 µg/mL (≈ 126 µM)
- O=C1/C(=C/c2cccs2)SC(=S)N1C1CCS(=O)(=O)C1 (stereo not drawn) — lower, < 0.7 µg/mL
- COc1ccc(CCNC(=S)NCCc2ccc(OC)c(OC)c2)cc1OC — higher, > 60.7 µg/mL
- CCOC(=O)CCCc1ccc(/C(C)=N/NC(N)=S)cc1 — higher, > 46.1 µg/mL
- CC(C)CCC1(C)NC(=O)N(CC(=O)Nc2ccc3c(c2)OCCO3)C1=O (stereo not drawn) — 2.1-fold higher, 49.6 µg/mL (≈ 132 µM)
- CN(C)N1C(=O)CC(N2CCCCC2)C1=O (stereo not drawn) — higher, > 33.8 µg/mL
- COc1cccc(N2CCN(c3ccc(S(=O)(=O)N4CCN(C)CC4)cc3[N+](=O)[O-])CC2)c1 — 1.9-fold lower, 11.9 µg/mL (≈ 25 µM)
- O=C(CN1C(=O)COc2ccccc21)N1CCN(C2CCCCC2)CC1 — 2.1-fold higher, 49.2 µg/mL (≈ 138 µM)
- O=C(Nc1cccc2ncccc12)c1ccccc1F — 1.7-fold higher, 39.7 µg/mL (≈ 149 µM)
- N#C/C(=C\c1ccc(O)c(O)c1)C(=O)Nc1cccc2ncccc12 — within 1.5-fold, 20 µg/mL (≈ 60.4 µM)
- CC(NCC#Cc1ccccc1)C(O)c1ccccc1.Cl (stereo not drawn) — 1.9-fold higher, 44.8 µg/mL
- CS(=O)(=O)Nc1cccc(-c2cnc3ccccc3n2)c1 — higher, > 44.9 µg/mL
- Cc1ccc(NC(=O)CN2CCN(Cc3ccccc3)CC2)cc1 — higher, > 48.5 µg/mL
- Cc1onc(-c2ccccc2)c1C(=O)NC(C)c1ccccc1 (stereo not drawn) — 4.7-fold lower, 4.9 µg/mL (≈ 16 µM)
- Cc1cc(C(=O)COC(=O)Cc2ccc(Br)cc2)c(C)n1C — 1.5-fold lower, 15.2 µg/mL (≈ 41.7 µM)
- CC(=O)c1ccc(NC(=O)c2cnsn2)cc1 — within 1.5-fold, 29.1 µg/mL (≈ 118 µM)
- COC(=O)c1ccc(NC(=O)c2ccc3nsnc3c2)cc1 — 18-fold lower, 1.3 µg/mL (≈ 4.15 µM)
- Cc1ccc(C2C(C#N)=C(N)Oc3cc(N)ccc32)cc1 (stereo not drawn) — 5.2-fold lower, 4.4 µg/mL (≈ 15.9 µM)
- CCc1ccc(NC(=O)CCCN2C(=S)NC(C)(C)CC2C)cc1 (stereo not drawn) — 1.7-fold higher, 38.7 µg/mL (≈ 111 µM)
- COc1ccc(Cl)cc1NC(=O)CN(C)CC(=O)N(CC(C)C)c1c(N)n(CC(C)C)c(=O)[nH]c1=O — 3.4-fold higher, 77.9 µg/mL (≈ 149 µM)
- Cc1cccc(OCc2nc(-c3ccc(Br)o3)no2)c1 — 23-fold lower, 1 µg/mL (≈ 2.98 µM)
- CC(C)(C)C(=O)CN1C(=O)NC2(CCCc3ccccc32)C1=O (stereo not drawn) — higher, > 47.2 µg/mL
- Cc1ccc(C(=O)NCC(C)NC(=O)c2ccc(C)c(C)c2)cc1C (stereo not drawn) — 6.8-fold lower, 3.4 µg/mL (≈ 10 µM)
- COc1ccc(NC(=O)c2nc(SC)ncc2Cl)cc1 — 2.8-fold lower, 8.2 µg/mL (≈ 26.5 µM)
- CC(=O)c1ccc(NC(=O)NC2CCCCCCC2)cc1 — 4.5-fold lower, 5.1 µg/mL (≈ 17.7 µM)
- Cc1ccc2nc(-c3ccccn3)[nH]c2c1.Cl — higher, > 36.9 µg/mL
- O=C(NCCNc1ccc([N+](=O)[O-])cc1)c1cc(F)c(F)cc1Cl — 12-fold lower, 2 µg/mL (≈ 5.62 µM)
- Cc1cc(C(=O)N2CCN(C(=O)c3ccco3)CC2)ccc1[N+](=O)[O-] — 2.1-fold higher, 47.5 µg/mL (≈ 138 µM)
- O=C(CN1C(=O)NC2(CCCc3ccccc32)C1=O)c1ccc(F)c(F)c1 (stereo not drawn) — within 1.5-fold, 17.3 µg/mL (≈ 46.7 µM)
- O=C(COC(=O)c1cccc(F)c1)NCCC1=CCCCC1 — 2.4-fold lower, 9.5 µg/mL (≈ 31.1 µM)
- S=C1SCN(Cc2cccnc2)CN1Cc1cccnc1 — higher, > 47.5 µg/mL
- Cc1cc(C(=O)Nc2ccc3c(c2)CCC3)ccc1[N+](=O)[O-] — lower, < 0.3 µg/mL
- COC(=O)c1cc2c(=O)c3ccccc3oc2nc1/C=C/N(C)C — within 1.5-fold, 30.1 µg/mL (≈ 92.8 µM)
- O=C1CCCC2=C1C(c1ccccc1)CC(=O)N2c1ccc(F)cc1F (stereo not drawn) — 2-fold higher, 45.8 µg/mL (≈ 130 µM)
- COc1cccc(NC(=O)[C@@H]2CCC(=O)N2C2OC(=O)c3ccccc32)c1 (stereo partly drawn) — higher, > 55 µg/mL
